From patent US10870638B2, “Pyridazinone compound or its salt, and herbicide containing it” (ISHIHARA SANGYO KAISHA, LTD., priority 2016, dated 2020)

Tests used:
Assay type in all cases: in vivo
Settings in all cases: active ingredient amount 31 g/ha, 14th day after application
[1] = tested on: wheat (Triticum aestivum L.); test: Test Example 2: soil application on the day after sowing, growth inhibition rate on 14th day
Procedure, shortened: (§1)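 Growth inhibition (%) judged by eye at day 14, scale 0 = as untreated to 100 = complete kill. Compounds formulated as wettable powders or emulsifiable concentrates, diluted in 1,000 L water per ha and sprayed onto pot soil one day post-sowing at set active-ingredient rates.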

[2] = tested on: corn (Zea mays L.); test: as above
Procedure, shortened: as §1

[3] = tested on: redroot pigweed (Amaranthus retroflexus L.); test: as above
Procedure, shortened: as §1

[4] = tested on: barnyardgrass (Echinochloa crus-qalli L.); test: as above
Procedure, shortened: as §1

[5] = tested on: velvetleaf (Abutilon theophrasti MEDIC.); test: as above
Procedure, shortened: as §1

[6] = tested on: prickly sida (Sida spinosa L.); test: as above
Procedure, shortened: as §1

[7] = tested on: green foxtail (Setaria viridis L.); test: as above
Procedure, shortened: as §1

[8] = tested on: rice (Oryza sativa L.); test: as above
Procedure, shortened: as §1

[9] = tested on: soybean (Glycine max Merr.); test: as above
Procedure, shortened: as §1

[10] = tested on: crabgrass (Digitaris sanquinalis L.); test: as above
Procedure, shortened: as §1

[11] = tested on: wheat (Triticum aestivum L.); test: Test Example 1: foliar treatment, growth inhibition rate on 14th day
Procedure, shortened: (§2)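 Visual 0–100% inhibition scoring (100 = complete kill) at 14 days after foliar treatment of soil-grown seedlings at species-specific leaf stages, with the compound sprayed as a wettable powder or emulsifiable concentrate dilution.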

[12] = tested on: crabgrass (Digitaria sanquinalis L.); test: as above
Procedure, shortened: as §2

[13] = tested on: corn (Zea mays L.); test: as above
Procedure, shortened: as §2

[14] = tested on: redroot pigweed (Amaranthus retroflexus L.); test: as above
Procedure, shortened: as §2

[15] = tested on: barnyardgrass (Echinochloa crus-qalli L.); test: as above
Procedure, shortened: as §2

[16] = tested on: wild oat (Avena fatua L.); test: as above
Procedure, shortened: (§3)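 Inhibition was rated visually 14 days after treatment on a 0–100% scale, where 100 is complete kill. Compounds, formulated as wettable powders or emulsifiable concentrates at set active-ingredient amounts, were diluted to 1,000 L/ha with 0.1 vol% spreader. The dilutions were sprayed post-emergence onto soybean (primary leaf), rice (0.2–2.7 leaf), wild oat (0.4–1.2) and green foxtail (0.5–3.2).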

[17] = tested on: green foxtail (Setaria viridis L.); test: as above
Procedure, shortened: as §3

[18] = tested on: italian ryegrass (Lolium multiflorum Lam.); test: as above
Procedure, shortened: as §2

[19] = tested on: rice (Oryza sativa L.); test: as above
Procedure, shortened: as §3

[20] = tested on: soybean (Glycine max Merr.); test: as above
Procedure, shortened: as §3

Row | Compound | Growth inhibition rate (%) Wheat [1] [%] | Growth inhibition rate (%) Corn [2] [%] | Growth inhibition rate (%) Redroot pigweed [3] [%] | Growth inhibition rate (%) Barnyardgrass [4] [%] | Growth inhibition rate (%) Velvetleaf [5] [%] | Growth inhibition rate (%) Prickly sida [6] [%] | Growth inhibition rate (%) Green foxtail [7] [%] | Growth inhibition rate (%) Rice [8] [%] | Growth inhibition rate (%) Soybean [9] [%] | Growth inhibition rate (%) Crabgrass [10] [%] | Growth inhibition rate (%) Wheat [11] [%] | Growth inhibition rate (%) Crabgrass [12] [%] | Growth inhibition rate (%) Corn [13] [%] | Growth inhibition rate (%) Redroot pigweed [14] [%] | Growth inhibition rate (%) Barnyardgrass [15] [%] | Growth inhibition rate (%) Wild oat [16] [%] | Growth inhibition rate (%) Green foxtail [17] [%] | Growth inhibition rate (%) Italian ryegrass [18] [%] | Growth inhibition rate (%) Rice [19] [%] | Growth inhibition rate (%) Soybean [20] [%]
1 | CC(=O)Oc1c(C)nn(C)c(=O)c1-c1cc(Oc2ncc(C(F)(F)F)cc2F)ccc1C [Compound 2-63] | 0 | 0 | 0 | 100 | 0 | 0 | 98 | 15 | 0 | 100 | 95 | 98 | 100 | 0 | 100 | 100 | 100 | 100 | 90 | 0
2 | Cc1ccc(Oc2ncc(C(F)(F)F)cc2Br)cc1-c1c(O)c(C)nn(C)c1=O [Compound 2-83] | 0 | 0 | 100 | 99 | 0 | 75 | 100 | 30 | 0 | 100 | 10 | 98 | 60 | 0 | 99 | 88 | 99 | 80 | 0 | 0
3 | Cc1ccc(Oc2ncc(C(F)(F)F)cc2C(F)(F)F)cc1-c1c(O)c(C)nn(C)c1=O [Compound 2-84] | 0 | 0 | 0 | 100 | 0 | 0 | 100 | 60 | 0 | 100 | 0 | 100 | 90 | 0 | 99 | 99 | 100 | 93 | 0 | 0
4 | CCc1nn(C)c(=O)c(-c2cc(Oc3nc4ccc(Cl)cc4o3)ccc2C)c1O [Compound 2-89] | 0 | 0 | 0 | 95 | 0 | 0 | 50 | 30 | 0 | 30 | 0 | 65 | 30 | 0 | 95 | 0 | 93 | 20 | 10 | 20
